Results on 5 molecules are retold here after article PMC10901774, “Mirror-image ligand discovery enabled by single-shot fast-flow synthesis of D-proteins” (Nature Communications, 2024).

Read-outs that look alike come from different tables or passages of the source. *1 amine or outer side, *2 acyl side, *3 side chain or, on linkers, in order; H or OH if unused. Where a SMILES comes first, the peptide text is derived from it. Bridges are numbered along the chain shown (N, C = ends). [ ]: non-standard residue; d: D form. Phenylene(1,4-NHCOCH2)2 = O=C(C[*:1])Nc1ccc(NC(=O)C[*:2])cc1

Assay [1] deals with T1, recombinant MDM2 (biotinylated MDM2[25-109]) (Homo sapiens, UniProt Q00987).
T1 construct: MDM2 (residues 25-109); made in house
Nature of the assay: SPR of macrocyclic D-peptides to recombinant MDM2. The format is binding. The following applies: SI table 1.26.1, Biacore 8K, 25 °C, 1x HBS-P+ with 1% DMSO, top concentration 5 μM, N = 1, * = listed KD value is beyond tested concentrations, read-out: Measured KD. The source says: We identified three binding clusters selective for D-MDM2 with phage display screening (Fig. 4A and SI Section 1.26). In brief, immobilized D-MDM2 from AFPS was screened against an unbiased phage library of 10^8 members displaying macrocyclic α-helical peptides. We sequenced phage particles that remained bound to the targets after washing using next-generation sequencing. Comparisons of sequencing reads to a spiked-in internal reference allowed for a semi-quantitative read-out of binding affinity as a function of protein bait concentration. […] Consistent with previously described α-helical peptide binders to MDM2[64],[65], all three clusters contain anchoring N-terminal tryptophan residues (dW2 in MDM2.C1, dW1 in MDM2.C2, and dW1 in MDM2.C3), and show conserved hydrophobic residues on the same α-helical face as the tryptophan residue (i,i + 4/5 and i,i + 8/9 relative to dW on each cluster). To validate the specificity of each binding cluster, we synthesized representative binding peptides in the D-form (Fig. 4B, D-H101 from MDM2.C1, D-H102 from MDM2.C2, and D-H103 from MDM2.C3) and measured their affinity to recombinant MDM2 with SPR. We observed binding constants of 5.5 μM, 2.4 μM, and 0.88 μM, respectively (Fig. 4C and Supplementary Figs. 6–8).
1.24. YAP1-WW1-WW2 Protein Expression […]
Cluster ID Sequence Measured KD […]
In general terms: SPR reads the build-up and loss of mass on a sensor chip optically.

Assay [2] addresses T2, CHIP23-303 recombinant protein (Homo sapiens, UniProt Q9UNE7).
T2 construct: 6xHis (N, cleaved yes); TEV cleavage site (N, cleaved yes); made in house; host or cells: E. coli BL21 CodonPlus (pET21b-derived vector)
T2 sequence (Q9UNE7 23-303): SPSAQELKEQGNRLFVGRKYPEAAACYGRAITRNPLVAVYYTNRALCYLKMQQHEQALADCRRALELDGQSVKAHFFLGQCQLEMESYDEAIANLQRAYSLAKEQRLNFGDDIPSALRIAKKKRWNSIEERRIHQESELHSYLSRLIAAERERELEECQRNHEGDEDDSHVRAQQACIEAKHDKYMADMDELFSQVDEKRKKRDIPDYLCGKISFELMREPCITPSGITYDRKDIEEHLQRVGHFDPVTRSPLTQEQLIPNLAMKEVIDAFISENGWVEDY
Nature of the assay: competition fluorescence polarization against FAM-Hsp70 peptide loaded CHIP. The format is binding. Particulars: SI table 1.27.1, read-out: Measured IC50. From the text: Not limited to known D-proteins, we nominated an original target for MIPD screening, CHIP, and identified three macrocyclic D-peptide binders. CHIP is a member of the RING/U-Box family of E3 ligases that direct the ubiquitination of chaperones[66] and their bound client proteins[67],[68] (Fig. 6A). This interaction is driven by a common (I/M)EEVD motif present on the C-terminus of heat shock protein 70 (Hsp70) and Hsp90 family members that is recognized by the TPR domain of CHIP[69] (Fig. 6B). Degradation driven by CHIP is active in a diverse range of cellular processes from monitoring protein quality control[68] to mediating interferon-γ signaling. Masking of the CHIP-TPR domain can in theory modulate these signaling pathways and as a result is actively being pursued[69],[71]. In addition, CHIP belongs to the same protein family as MDM2 (E3 ubiquitin ligases) and has potential therapeutic relevance by being implicated in neurological disease. For these reasons, we hypothesized that this domain would be a valuable target for D-peptide discovery, and successfully isolated the protein in its mirror image form for MIPD screening. […] All three clusters feature conserved terminal residues with carboxylate functionalities (dD3 in CHIP.C1, dD1/dE2 in CHIP.C2, and dD12 in CHIP.C3), consistent with the conserved terminal aspartic acid residues found on CHIP substrates. Hydrophobic residues are retained in the i,i + 4/5 positions relative to the anchoring aspartic acid residue: dW6 in CHIP.C1, dW6 in CHIP.C2, and dA8 in CHIP.C3, presumably for interaction with the hydrophobic TPR groove.
Supplementary Figure 14. D-H109 SPR to Recombinant MDM2. Sensorgrams and steady state affinity plots of D-H109 binding to recombinant MDM2 are shown.
1.27. CHIP Peptide Binders from Phage Display
1.27.1. CHIP Binder Sequences
Cluster ID Sequence Measured IC50
CHIP.C1 H201ǂ Ac-pwedcawfawacyni-NH2 470 nM
CHIP.C2 H203ǂ Ac-phemcywadaycrys-NH2 550 nM
CHIP.C2 H204ǂ Ac-pldlcywaslhcivs-NH2 770 nM
Listed sequences were cyclized between C5 and C12 with N,N'-(1,4-phenylene)bis(2-bromoacetamide) . ǂSequences were selected for co-crystallization with CHIP.
1.27.2. CHIP Binder FP Validation
For the competition FP of CHIP, Helicons at 10 mM in DMSO were serially diluted 1:3 in DMSO for a total of 11 concentrations using a Mosquito LV (SPT Labtech), then diluted 1000-fold in buffer (1 x HBS-P+, Cytiva) in duplicate by the Mosquito LV (SPT Labtech) into a black polystyrene 384-well plate (Corning) (11-point three-fold peptide dilution series with top concentration = 10 μM). […]
HSP70). The plate was incubated and protected from light for 1 hour at room temperature prior to reading. Reads were performed on a CLARIOstar plate reader (BMG Labtech) with excitation at 485 nm, emission at 525 nm, and cutoff at 504 nm. […]
(In fluorescence polarisation assays a small probe gives low polarisation when free and higher when bound to something large.)

Setting [3] is: 400 nM CHIP23-303, 20 nM probe 5FAM-bAla-[…], 1 hour room temperature, duplicate.

As a reminder, the Kd is the equilibrium constant for the complex coming apart. The term IC50 denotes the concentration needed to halve the response being measured.

T1 sequence (Q00987 25-109): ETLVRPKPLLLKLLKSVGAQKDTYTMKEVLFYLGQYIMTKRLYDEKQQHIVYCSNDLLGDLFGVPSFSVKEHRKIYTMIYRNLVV

As for `CC(=O)N[C@H](CC(=O)O)C(=O)N1CCC[C@@H]1C(=O)N[C@H](C)C(=O)N[C@H](CO)C(=O)N[C@H](CCCNC(=N)N)C(=O)N[C@H](CC(N)=O)C(=O)N[C@@H]1CSCC(=O)Nc2ccc(cc2)NC(=O)CSC[C@H](C(=O)N[C@H](CCC(=O)O)C(=O)N[C@H](Cc2ccc(O)cc2)C(=O)N[C@H](Cc2c[nH]c3ccccc23)C(N)=O)NC(=O)[C@@H](CC(C)C)NC(=O)[C@@H](Cc2c[nH]cn2)NC(=O)[C@@H](C)NC(=O)[C@@H](C)NC(=O)[C@@H](Cc2c[nH]c3ccccc23)NC(=O)[C@@H](CCC(N)=O)NC1=O` [H107] (Ac-[dD][dP][dA][dS][dR][dN][dC][dQ][dW][dA][dA][dH][dL][dC][dE][dY][dW]-NH2; linker 7-14 via Phenylene(1,4-NHCOCH2)2), the Kd in assay [1] was found to be 1100 nM.

Turning to `CSCC[C@@H](NC(=O)[C@@H](CCC(=O)O)NC(=O)[C@@H](Cc1c[nH]cn1)NC(=O)[C@H]1CCCN1C(C)=O)C(=O)N[C@@H]1CSCC(=O)Nc2ccc(cc2)NC(=O)CSC[C@H](C(=O)N[C@H](CCCNC(=N)N)C(=O)N[C@H](Cc2ccc(O)cc2)C(=O)N[C@H](CO)C(N)=O)NC(=O)[C@@H](Cc2ccc(O)cc2)NC(=O)[C@@H](C)NC(=O)[C@@H](CC(=O)O)NC(=O)[C@@H](C)NC(=O)[C@@H](Cc2c[nH]c3ccccc23)NC(=O)[C@@H](Cc2ccc(O)cc2)NC1=O` [D-H203] (Ac-[dP][dH][dE][dM][dC][dY][dW][dA][dD][dA][dY][dC][dR][dY][dS]-NH2; linker 5-12 via Phenylene(1,4-NHCOCH2)2), the IC50 in assay [2] (setting [3]) was 550 nM.

For the molecule `CC(=O)N1CCC[C@@H]1C(=O)N[C@H](Cc1c[nH]c2ccccc12)C(=O)N[C@H](Cc1c[nH]c2ccccc12)C(=O)N[C@H](CCC(=O)O)C(=O)N[C@@H]1CSCC(=O)Nc2ccc(cc2)NC(=O)CSC[C@H](C(=O)N[C@H](CC(=O)O)C(=O)N[C@H](Cc2ccccc2)C(=O)N[C@H](CCCNC(=N)N)C(N)=O)NC(=O)[C@@H](CC(=O)O)NC(=O)[C@@H](CC(=O)O)NC(=O)[C@@H](C)NC(=O)[C@@H](CCC(N)=O)NC(=O)[C@@H](CO)NC(=O)[C@@H](CC(C)C)NC1=O` [D-H202] (Ac-[dP][dW][dW][dE][dC][dL][dS][dQ][dA][dD][dD][dC][dD][dF][dR]-NH2; linker 5-12 via Phenylene(1,4-NHCOCH2)2), the IC50 in assay [2] (unit as printed in the cell of H202, same competition FP) worked out at 1230 nM.

Take `CC[C@@H](C)[C@@H](NC(=O)[C@@H](CC(N)=O)NC(=O)[C@@H](Cc1ccc(O)cc1)NC(=O)[C@H]1CSCC(=O)Nc2ccc(cc2)NC(=O)CSC[C@@H](NC(=O)[C@@H](CC(=O)O)NC(=O)[C@@H](CCC(=O)O)NC(=O)[C@@H](Cc2c[nH]c3ccccc23)NC(=O)[C@H]2CCCN2C(C)=O)C(=O)N[C@H](C)C(=O)N[C@H](Cc2c[nH]c3ccccc23)C(=O)N[C@H](Cc2ccccc2)C(=O)N[C@H](C)C(=O)N[C@H](Cc2c[nH]c3ccccc23)C(=O)N[C@H](C)C(=O)N1)C(N)=O` [D-H201] (Ac-[dP][dW][dE][dD][dC][dA][dW][dF][dA][dW][dA][dC][dY][dN][dI]-NH2; linker 5-12 via Phenylene(1,4-NHCOCH2)2): in assay [2] (setting [3]), the IC50 came out at 470 nM.

Consider `CC[C@@H](C)[C@@H](NC(=O)[C@H]1CSCC(=O)Nc2ccc(cc2)NC(=O)CSC[C@@H](NC(=O)[C@@H](CC(C)C)NC(=O)[C@@H](CC(=O)O)NC(=O)[C@@H](CC(C)C)NC(=O)[C@H]2CCCN2C(C)=O)C(=O)N[C@H](Cc2ccc(O)cc2)C(=O)N[C@H](Cc2c[nH]c3ccccc23)C(=O)N[C@H](C)C(=O)N[C@H](CO)C(=O)N[C@H](CC(C)C)C(=O)N[C@H](Cc2c[nH]cn2)C(=O)N1)C(=O)N[C@@H](C(=O)N[C@H](CO)C(N)=O)C(C)C` [H204] (Ac-[dP][dL][dD][dL][dC][dY][dW][dA][dS][dL][dH][dC][dI][dV][dS]-NH2; linker 5-12 via Phenylene(1,4-NHCOCH2)2), for which the IC50 in assay [2] (setting [3]) is 770 nM.
